Measured values taken from patent US20260294863A1, “METHOD OF TREATING FIBROTIC-RELATED CONDITION” (YISSUM RESEARCH DEVELOPMENT COMPANY OF THE HEBREW …, priority 2023, published 2026).

How the values were obtained:
[1] = tested on: primary mouse microglial cultures activated by lipopolysaccharide (LPS); conditions: cited from earlier work
TGFβ = experiment: TGFβ-containing cells in skin, bleomycin-induced skin sclerosis; type: in vivo, C57BL/6 mice; conditions: ladostigil 10 mg/kg/day + bleomycin; p<0.05
Protocol: (§1) Male C57BL/6 mice aged 8 weeks were housed under pathogen-free conditions at a controlled temperature of 22-24° C., humidity and alternating 12-h light/dark cycles and provided with food and water ad libitum. Skin sclerosis was induced as described by Ravanetti et al, (2020). A small incision was made in the skin at the back caudal to the scapulae and subcutaneous pocket was created into which an Alzet micro-osmotic pump was implanted, and the incision closed with two stiches and a surgical clip. The pumps contained bleomycin, (delivered at the rate of 60 U/kg body weight) or saline (control) and were removed 10 days after implantation. The mice were monitored daily until they recovered completely and weighed twice weekly from the beginning of the experiment.
(§2) Ladostigil (10 mg/kg/day) was administered in the drinking fluid to 10 mice, housed 2/cage, from 3 days before bleomycin pump installation until the end of the experiment. The fluid intake of the mice was measured daily. The dose of ladostigil was adjusted accordingly. Bleomycin alone, (10 mice) and saline controls (6 mice) received regular drinking fluid.

IL6 = experiment: Secretion of IL6 from BzATP/LPS-activated microglia (ELISA); type: cell-based, Balb/C mice
Protocol: (§3) Experiments were performed on primary microglial cells isolated from brains of neonatal Balb/C mice as previously described (Reichert and Rotshenker, 2003). The brains were stripped of their meninges and enzymatically dissociated. Cells were plated on Poly-L-lysine coated flasks for one week, re-plated for 1- to 2-hr on bacteriological plates and non-adherent cells were washed away. Microglia were propagated by incubation in 20% of medium, conditioned by the L-cell line that produces mouse-CSF. They were identified by morphology and positive immune-reactivity to P2y12, F4/80, complement receptor-3 and Galectin-3/MAC-2 (Reichert and Rotshenker 2003; Gitik et al. 2011).
(§4) Cytokines were measured as previously described (Shamash et al. 2002) using ELISA Max deluxe set (Biolegend, CA, USA) for secreted TNFα and IL-6 proteins and ELISA DuoSet (R&D systems, UK) for secreted and cell associated IL-1β, according to manufacturer's instructions.
(§5) The effect of ladostigil at concentrations of 1×10^−13 M to 1×10^−9 M on the secretion of cytokine proteins was assessed by adding it to microglia for 2 hr before LPS (0.75 μg/ml) and BzATP (400 μM). Other microglia were treated similarly with the steroid, budesonide as a reference standard at concentrations of 1× 10^−13 to 1× 10^−11 M. Measurements of cytokine secretion were performed 8 hrs after addition of LPS and BzATP. Since the levels of secreted IL-1β were still low, samples were concentrated 2- to 4-fold by an Amicon ultra-centrifugal filter device (Merck-Millipore, Ireland). ELISA was used to quantify the levels of cytokine proteins. Protein content in the microglia lysate was measured by Bradford and levels of cytokines were calculated and presented as pg/μg of microglial protein.

EGR1 = experiment: Nuclear levels of EGR1 in microglia activated by BzATP and LPS; type: cell-based, Balb/C mice
Protocol: as §3
(§6) The addition of BzATP/LPS to microglia increased cytoplasmic levels of TNFαIP3 protein and nuclear ERGR1 protein.

[2] = Body weight in bleomycin-induced lung fibrosis; type: in vivo, C57BL/6JOlaHsd mice; conditions: bleomycin lung fibrosis
Protocol: The animal model of bleomycin-induced lung fibrosis is widely used to characterize the potential inhibitory effect of newly developed drugs (Distler et al. 2019). Experiments were performed in C57BL/6JOlaHsd male and female mice aged 12-13 weeks. Male mice weighed 23-27.3 g and female mice, 19.4-21.1 g. They were housed under pathogen-free conditions, up to 6 per cage, in IVC cages under a controlled temperature of 22-24° C., humidity and alternating 12-h light/dark cycles and provided with food and water ad libitum. In order to minimize the stress of daily injection, ladostigil (5 mg/Kg/day) was administered by micro-osmotic pumps, implanted subcutaneously under ketamine/xylazine anesthesia, 5 days before administration of bleomycin, and delivered for 3 weeks to mice of each sex. Saline (2-3/sex) and bleomycin controls were anesthetized as described above. Bleomycin solution (0.25 mg/kg in 50 μl) was instilled into the lumen of the trachea as shown in a video by Ehrentraut et al. (2019). […] Mice were weighed daily and sacrificed on day 21. Bronchial fluid was collected as described in Ehrentraut et al. (2019). TNFα and IL-6 in the bronchial fluid lavage was measured by ELISA as described in the preceding section.
Experiments were performed in C57BL/6JOlaHsd male mice aged 12-13 weeks as described for ladostigil. AN1284 (2.5 mg/kg/day) was administered by micro-osmotic pumps, implanted subcutaneously under ketamine/xylazine anesthesia, 5 days before administration of bleomycin and delivered for 3 weeks. Mice were weighed daily, sacrificed on day 21 and bronchial fluid was collected. Fibrosis was measured by staining with Sirius red as described for ladostigil. TNFα and IL-6 in the bronchial fluid lavage was measured by ELISA as described for ladostigil.

IL1β = experiment: Secretion of IL1β from BzATP/LPS-activated microglia (ELISA); type: cell-based, Balb/C mice
Protocol: as §3, §4, §5

TNFα = experiment: Secretion of TNFα from BzATP/LPS-activated microglia (ELISA); type: cell-based, Balb/C mice
Protocol: as §3, §4, §5

[3] = Body weight in bleomycin-induced skin sclerosis; type: in vivo, C57BL/6 mice; conditions: 10 mg/kg/day in drinking fluid
Protocol: as §1, §2

NFκB = conditions: LPS; cited from earlier work
TNFAIP3 = experiment: Levels of TNFAIP3 protein in microglial cytoplasm; type: cell-based, Balb/C mice
Protocol: as §3, §6

[4] = all concentrations tested, added 2 hrs before BzATP and LPS, 0.1% BSA, p<0.01
[5] = microglia, ladostigil 1×10^−10 M on top of BzATP/LPS

C#CCN[C@@H]1CCc2ccc(OC(=O)N(C)CC)cc21 [Ladostigil, 6-(N-ethyl, N-methylcarbamyloxy)-N propargyl-1 (R)-aminoindan hemitartrate]
IL1β gene expression [1]: decreased gene expression | IL-6 gene expression [1]: decreased gene expression | TNFα gene expression [1]: decreased gene expression | number of TGFβ-containing cells in the skin (TGFβ): significantly reduced the number of TGFβ-containing cells | Emax (IL6; Mus musculus, Microglia, 8 h, 1×10^−11-1×10^−9 M, read-out: maximal reduction of IL6): ~50% | minimal effective concentration (IL6; Mus musculus, microglia, BzATP/LPS, medium containing BSA, 8 hrs, read-out: lowest concentration that significantly decreased IL6 secretion): 1e-07 µM | reduction of IL6 release (IL6; [4]): reduced the 3 cytokines significantly | reduction of IL6 compared with reduction of TNF (IL6; all concentrations tested, p<0.001): greater than those of TNF | Mean percent of nuclei with positive EGR1 protein immunoreactivity ± SEM (EGR1; BzATP/LPS, ladostigil 1×10^−10 M, Medium 19.0 ± 4.2): 56.0 ± 3.9% | change in nuclear EGR1 protein (EGR1; [5]): decreased | body weight loss ([2]; females, 5 and 10 mg/kg): significantly reduced weight loss | body weight loss ([2]; males, only at 10 mg/kg): significantly reduced weight loss | Emax (IL1β; Mus musculus, Microglia, 8 h, 1×10^−11-1×10^−9 M, read-out: maximal reduction of IL1β): ~50% | minimal effective concentration (IL1β; Mus musculus, microglia, BzATP/LPS, medium containing BSA, 8 hrs, read-out: lowest concentration that significantly decreased IL1β secretion): 1e-06 µM | reduction of IL1β release (IL1β; [4]): reduced the 3 cytokines significantly | reduction of IL1β compared with reduction of TNFα (IL1β; ladostigil 1×10^−9 M, budesonide 1×10^−11 M): greater than that of TNFα | minimal effective concentration (TNFα; Mus musculus, microglia, BzATP/LPS, medium containing BSA, 8 hrs, read-out: lowest concentration that significantly decreased TNFα secretion): 1e-07 µM | reduction of TNFα release (TNFα; [4]): reduced the 3 cytokines significantly | weight gain compared with bleomycin ([3]; days 18, 21, 24 and 27): greater than in those on bleomycin | increase in body weight ([3]; days 24-27, skin sclerosis): 15% | nuclear translocation of NFκB (NFκB): decrease in the nuclear translocation of NFκB | Mean conc. ± SEM of TNFAIP3 in microglial cytoplasm (TNFAIP3; BzATP/LPS, ladostigil 1×10^−10 M, Medium 19.8 ± 0.6): 28.8 ± 0.9 | change in cytoplasmic TNFαIP3 protein (TNFAIP3; [5]): further increase
